Converted amounts (≈) assume the structure as drawn.

In one series the test system is E. coli BW25113. The experiment in a line: MIC, parental strain of Keio mutants. It counts as cell-based, Escherichia coli. How it is done: All bacterial strains (see description and sources Table S1) were stored at −80 °C, and grown on tryptone soya agar (TSA) at 35 °C. The iron-deprived (ID)-MHBCA (cation-adjusted Muller-Hinton Broth, Becton Dickinson, Mississauga, ON, Canada) medium was prepared as reported by refs. [21],[50]. Briefly, MHBCA was treated with 10% Chelex® 50-100 mesh (Sigma) and stirred for 6 h at room temperature. The resin was removed by filtration. Divalent Ca^2+ (CaCl2), Mg^2+ (MgCl2), and Zn^2+(ZnSO4), were then added in the iron-depleted medium at 22, 12, and 1 μg/ml respectively. Finally, the pH was adjusted to 7.3, and the medium was sterilized with a 0.2-μm filter. Regular MHBCA (i.e., not treated with Chelex®) was used to compare the inhibitory activity of conjugates in iron-sufficient conditions.
Minimal inhibitory concentrations (MICs) were performed using a broth microdilution technique according to the Clinical and Laboratory Standards Institute (CLSI) guidelines. MICs were determined in MHBCA and in ID-MHBCA. To check the impact of β-lactamases, MICs in the presence of a β-lactamase inhibitor were also determined. The inhibitor was homogenized at 2X the final concentration and added to the bacterial inoculum just before distributing cells into the wells containing the drug dilutions. The final concentration of each inhibitor was 4 μg/mL for clavulanic acid (tested against K. pneumoniae) and 200 μg/mL for 3-aminophenylboronic acid (tested against P. aeruginosa and A. baumannii).

A further series has as its target OXA-98 (Acinetobacter baumannii, UniProt D0C7W4). Briefly: biochemical. The arrangement: species or system A. baumannii ATCC 19606. How it is done:
(§1) Enzyme concentrations were 20 nM for AmpC and SHV-1, and 50 nM for OXA-98. Quartz cuvette (FireflySci Inc., Northport, NY) with 1 cm length path and 2 mm inside width was used with an Ultrospec 2100 Pro (Biochrom, Harvard Bioscience Inc., USA) to acquire the kinetic measures. […] The following extinction coefficients (Δε) and wavelengths (λ) were used:
(§2) The steady-state parameters (Km and Kcat) were determined by plotting the initial velocity against substrate concentrations (Michaelis–Menten curve). The Kcat was measured using the Vmax (μM/sec) divided by the total enzyme concentration and the catalytic efficiency was further calculated (Kcat/Km). SHV-1 parameters were determined with three Michaelis–Menten curves of at least seven substrate concentrations, while OXA-98 and AmpC were duplicates of curves of at least seven substrate concentrations. […] Initial velocities were measured at room temperature (25 °C). The Vmax and Km were calculated using least squares fit regression in GraphPad version 10.2.2. Ki was measured using a derivative of IC50 with an adaptation of the Cheng–Prusoff equation[55]. […] The corrected Ki was calculated using this formula: Kicorrected=Ki(observed)/1+S/KmNCF

A further series concerns the target SHV-1 (Klebsiella pneumoniae, UniProt P0AD64). The experiment in a line: biochemical. How it is done:
as §1, §2

The nature of series [1]: Antibiotic stability in 4-h bacterial culture supernatant. In kind it is physicochemical. Particulars: for additional decrease of residual concentration in used supernatants versus medium: 4-h supernatants with and without iron, after 3 h; for percentage of antibiotic degradation in [bacterial supernatant]: 3 h.
Description: For analysis, the determined concentration in the supernatant was adjusted for the degradation of the molecules measured in the stability control tests for each time point. The final net antibiotic concentration in the medium was calculated at each time point by adding the concentration caused by degradation to the concentration of the test antibiotic measured in the assay tubes containing bacteria. […] A second control was added for the β-lactam LOR and CEF to verify the impact of metabolic waste on the stability of the molecules. The supernatant from the 4-h growth control without antibiotic was collected by filtration 0.2 µm. LOR and CEF were then added to the filtrated supernatant at 200 µM, and degradation was measured after 3 h.
Series [2] has as its target PBP5 (Escherichia coli, UniProt P0AEB2). The experiment in a line: Membrane PBP binding assay, competition with Bocillin FL. Conditions: E. coli MC4100 membranes. As to the method:
(§3) Membrane extracts containing PBPs were obtained as described above. Briefly, all species were grown in 1 L of TSB until the OD600 reached 0.9. The washed pellet was incubated with lysozyme (400 μg/mL), DNase (10 μg/mL) RNase(10 μg/mL) and anti-protease cocktail (200 mg/20 mL). Lysis was done with a French press (20,000 psi) and membrane protein were pelleted by ultracentrifugation steps (100,000 × g). The pellet was suspended in a minimal volume (300–500 μL) of KP 0.05 M buffer at pH 7. The protein concentration in the membrane preparations was determined with the Micro BCA TM Protein Assay Kit (Thermo Fisher Scientific, Rockford, IL) using bovine serum albumin as a standard.
(§4) The PBP binding assay was done as described previously[36],[56],[57]. For each antibiotic concentration tested, a quantity of 25 to 40 μg of membrane preparation was used as the source of PBPs, depending on the species. […]
(§5) To be able to visualize labeled PBPs after electrophoresis, gels were rinsed in water and fixed in a solution of 50% methanol and 7% acetic acid for 30 min. […] To obtain quantifiable data, the software Quantity One 1D analysis was used (version 4.6.6; Bio-Rad Laboratories, Richmond, CA). The volume (intensity × constant area) of each PBP was measured. […] The PBP profiles were confirmed, and the PBP numbering were determined using published data and individual molecular weights. […]

The target of series [3] is PBP5 (Klebsiella pneumoniae, UniProt A6T693). The series is described as above. Particulars: K. pneumoniae ATCC 13883 membranes. As to the method:
as §3, §4, §5

Setting [4] is: Escherichia coli, BW25113, BW25113, ID-MHBCA.
Where [5] appears, read: Escherichia coli, BW25113, BW25113, MHBCA.
Setting [6] is: supernatant of 4-hour culture in ID-MHBCA.

Sequence of OXA-98 (D0C7W4 entry or part of it): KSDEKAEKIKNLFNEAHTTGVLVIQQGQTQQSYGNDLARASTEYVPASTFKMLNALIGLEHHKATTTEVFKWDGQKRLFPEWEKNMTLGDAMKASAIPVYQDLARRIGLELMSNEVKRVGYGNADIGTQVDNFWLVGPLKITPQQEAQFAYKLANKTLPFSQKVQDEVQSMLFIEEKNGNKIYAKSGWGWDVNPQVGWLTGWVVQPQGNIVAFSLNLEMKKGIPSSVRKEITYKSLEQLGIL
Sequence of SHV-1 (P0AD64 23-286): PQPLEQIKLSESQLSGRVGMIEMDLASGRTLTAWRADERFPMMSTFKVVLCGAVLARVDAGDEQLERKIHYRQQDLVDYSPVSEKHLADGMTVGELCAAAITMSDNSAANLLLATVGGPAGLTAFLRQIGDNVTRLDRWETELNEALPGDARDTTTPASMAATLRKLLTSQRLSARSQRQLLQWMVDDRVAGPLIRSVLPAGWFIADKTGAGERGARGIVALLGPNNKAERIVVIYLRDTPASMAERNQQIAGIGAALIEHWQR
Sequence of PBP5 (Klebsiella pneumoniae, UniProt A6T693) (A6T693 entry or part of it): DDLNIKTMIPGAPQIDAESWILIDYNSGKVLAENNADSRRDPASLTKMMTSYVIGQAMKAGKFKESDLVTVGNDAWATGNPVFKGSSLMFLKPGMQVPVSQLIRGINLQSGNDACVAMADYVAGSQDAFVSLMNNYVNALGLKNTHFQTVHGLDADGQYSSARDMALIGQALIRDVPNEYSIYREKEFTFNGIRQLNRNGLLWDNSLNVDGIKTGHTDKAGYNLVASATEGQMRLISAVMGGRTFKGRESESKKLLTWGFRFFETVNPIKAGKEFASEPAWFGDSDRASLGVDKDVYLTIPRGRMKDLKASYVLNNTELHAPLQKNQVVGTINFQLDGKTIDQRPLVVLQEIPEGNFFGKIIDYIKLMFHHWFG
Sequence of PBP5 (Escherichia coli, UniProt P0AEB2) (P0AEB2 30-403): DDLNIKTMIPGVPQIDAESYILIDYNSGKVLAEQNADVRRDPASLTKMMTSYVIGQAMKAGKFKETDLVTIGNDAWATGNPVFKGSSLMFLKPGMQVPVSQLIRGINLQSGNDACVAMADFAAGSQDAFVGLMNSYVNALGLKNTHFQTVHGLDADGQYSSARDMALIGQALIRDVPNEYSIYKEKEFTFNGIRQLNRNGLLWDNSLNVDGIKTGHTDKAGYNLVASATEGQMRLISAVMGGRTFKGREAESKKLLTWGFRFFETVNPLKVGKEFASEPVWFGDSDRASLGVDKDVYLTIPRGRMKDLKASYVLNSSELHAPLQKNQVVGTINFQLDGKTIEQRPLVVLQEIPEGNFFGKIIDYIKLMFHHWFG

The MIC is the lowest concentration that inhibits growth of the organism. Broadly, the Ki is the equilibrium dissociation constant of an inhibitor or competing ligand from its target. A high value points to a looser hold on the target. `CC1(C)SC2C(NC(=O)C(NC(=O)CN(CCCCNC(=O)c3cccc(O)c3O)C(=O)c3cccc(O)c3O)c3ccccc3)C(=O)N2C1C(=O)O` (centres unmarked) [BAMP, bis-catechol (azotochelin)-ampicillin]: the results for the MIC in the series on E. coli BW25113 (setting [4]) and in the series with E. coli BW25113 (setting [5]) were 0.024 µM (≈ 0.018 µg/mL) and 0.05 µM (≈ 0.0375 µg/mL), respectively. The Ki at OXA-98 was 499 ± 4 µM; on SHV-1 it was 184 ± 14 µM.
Turning to `O=C(CN(CCCCNC(=O)c1cccc(O)c1O)C(=O)c1cccc(O)c1O)NC(C(=O)NC1C(=O)N2C(C(=O)O)=C(Cl)CCC12)c1ccccc1` (centres unmarked) [BLOR, bis-catechol (azotochelin)-loracarbef], the values for the MIC in the series with E. coli BW25113 (setting [4]) and with E. coli BW25113 (setting [5]) were 0.006 µM (≈ 0.0045 µg/mL) and 0.012 µM (≈ 0.009 µg/mL), respectively. At OXA-98, the “hydrolysis by OXA-98” value is reported as “No hydrolysis”.
On to `N[C@@H](C(=O)N[C@@H]1C(=O)N2C(C(=O)O)=C(Cl)CS[C@H]12)c1ccccc1` [CEF, cefaclor, reference compound], for which the “additional decrease of residual concentration in used supernatants versus medium” value in series [1] is not above 12%. Further, the “percentage of antibiotic degradation in [bacterial supernatant]” value in series [1] (setting [6]) amounted to 32%; in series [1] (supernatant of 4-hour culture in MHBCA) it was 36%. Besides, the MIC with E. coli BW25113 (setting [4]) and in the series with E. coli BW25113 (setting [5]) was 6.3 µM (≈ 2.32 µg/mL) in each case. In addition, the “hydrolysis by OXA-98” value on OXA-98 is listed as “No hydrolysis”.
As a reminder, the Km is the concentration of substrate that gives half-maximal velocity. A word on the IC50: it is the concentration at which inhibition is half-maximal. A high value points to weaker potency. For the compound `N[C@@H](C(=O)N[C@@H]1C(=O)N2C(C(=O)O)=C(Cl)CC[C@H]12)c1ccccc1` [LOR, loracarbef, reference compound], the “additional decrease of residual concentration in used supernatants versus medium” value in series [1] is not above 12%. Also, in series [1] (setting [6]), the “percentage of antibiotic degradation in [bacterial supernatant]” value came to 11%. Also, the MIC with E. coli BW25113 (BW25113, ID-MHBCA) was 6.3 µM (≈ 2.2 µg/mL); in the series on E. coli BW25113 (BW25113, MHBCA), 6.3 µM (≈ 2.2 µg/mL). Besides, the “hydrolysis by OXA-98” value on OXA-98 is reported as “No hydrolysis”. The “SHV-1 Kcat” value at SHV-1 (n = 3) is 7.4 ± 0.5 s⁻¹. Besides, at SHV-1 (read-out: SHV-1 Km, Michaelis–Menten curves, n = 3, 25 °C), the Km is 29 ± 9 µM. In addition, the IC50 on PBP5 [2] and at PBP5 [3] was more than 50 µM in each case.
Regarding `O=C(CCC(=O)N(CCCCNC(=O)c1cccc(O)c1O)CCCNC(=O)c1cccc(O)c1O)NCCCCCN(O)C(=O)CCCC(=O)NC(C(=O)NC1C(=O)N2C(C(=O)O)=C(Cl)CSC12)c1ccccc1` (centres unmarked) [MCEF, mixed ligand bis-catechol-mono-hydroxamate-cefaclor], the MIC in the series on E. coli BW25113 (BW25113, ID-MHBCA) was more than 200 µM; with E. coli BW25113 (setting [4]), more than 200 µM; in the series with E. coli BW25113 (setting [5]) it was 13 µM (≈ 14.1 µg/mL). In addition, the “hydrolysis by OXA-98” value on OXA-98 is “No hydrolysis”.

Source of the values: article PMC12592502, “Unraveling the mechanisms behind the enhanced efficacy of β-lactam-based sideromycins” (Communications Biology, 2025).
